Experimental data reported in the NIST ThermoML archive (doi:10.1016/j.fluid.2005.06.019).

Assays:
[1] = refractive index (Na D-line) (dimensionless); settings: 298.15 K; 101.33 kPa; Liquid; Standard Abbe refractometry
[2] = Liquid; for mass density: 101.33 kPa

CCCCCCO [hexan-1-ol]
Settings	refractive index
[1]	1.4162

[2]
Settings	mass density [kg/m3]	vapor or sublimation pressure [kPa]
298.15 K	814.85	–
356.39 K	–	5
364.42 K	–	7.5
368.04 K	–	8.9
372.23 K	–	10.9
376.68 K	–	13.4
379.61 K	–	15.3
384.92 K	–	19.3
384.93 K	–	19.3
390.31 K	–	24.2
394.34 K	–	28.5
398.14 K	–	33.1
401.57 K	–	37.8
404.56 K	–	42.3
407.43 K	–	47.1
410.27 K	–	52.2
412.75 K	–	57
414.93 K	–	61.5
417.18 K	–	66.4
417.28 K	–	66.7
419.52 K	–	71.9
421.96 K	–	78
424.54 K	–	84.8
426.31 K	–	89.8
428.2 K	–	95.3
429.97 K	–	100.8
430 K	–	101.5
430.06 K	–	101.3
430.26 K	–	101.7

CC(C)CO [2-methyl-1-propanol]
Settings	refractive index
[1]	1.3937

[2]
Settings	mass density [kg/m3]	vapor or sublimation pressure [kPa]
298.15 K	797.83	–
381.09 K	–	101.3

CC(=O)OCC(C)C [2-methylpropyl ethanoate]
Settings	refractive index
[1]	1.3876

[2]
Settings	mass density [kg/m3]	vapor or sublimation pressure [kPa]
293.15 K	866.12	–
389.9 K	–	101.3
